From US20090069418A1, “Compositions and Methods for the Treatment of Disorders Associated with Aberrant Vasodilation” (priority 2007, published 2009)
Like-named read-outs stand apart in the source and are kept apart here.

Legend:
mice [1] = assay: MCAO in mice, infarct size (Example 6); assay type: in vivo
Description: Transient focal cerebral ischemia was induced in adult male mice (20 to 26 g body weight) using the intraluminal MCAO technique, as previously described (Alkayed et al. (2001) J. Neurosci., 21:7543-7550). Briefly, mice were anesthetized with halothane (1.5 to 2% in O2-enriched air by face mask), and kept warm with water pads. A small laser-Doppler probe was affixed to skull to monitor cortical perfusion and verify vascular occlusion and reperfusion. A silicone-coated 6-0 nylon monofilament was inserted into the right internal carotid artery (ICA) via the external carotid artery (ECA) until laser-Doppler signal dropped to <30% of baseline. After securing the filament in place, the surgical site was closed, and the animal was awakened and assessed at 2 hours of occlusion for neurological deficit using a simple neurological scoring system as follows: 0=no deficit, 1=failure to extend forelimb, 2=circling, 3=unilateral weakness, 4=no spontaneous motor activity. […] Infarct size was measured at 24 hours after MCAO in 2-mm thick coronal brain sections (5 total) using 2,3,5-triphenyltetrazolium chloride (TTC) staining and digital image analysis. […] Slices were photographed and infracted (unstained) and uninfarcted (red color) areas were measured with MCID software (InterFocus, Linton, England) and integrated across all 5 slices. […]

C57Bl/6 mice = assay: Middle cerebral artery occlusion in mice, infarct size (Example 2); assay type: in vivo; conditions: MS-PPOH alone
Procedure: (2001) J. Neurosci., 21:7543-50). […] A small laser-Doppler probe was affixed to the skull to monitor cortical perfusion and verify vascular occlusion and reperfusion. […] After securing the filament in place, the surgical site was closed, and the animal was awakened and assessed at 2 hours of occlusion for neurological deficit using a simple neurological scoring system as follows: 0=no deficit, 1=failure to extend forelimb, 2=circling, 3=unilateral weakness, 4=no spontaneous motor activity. Mice with clear neurological deficit were re-anesthetized, laser-Doppler probe re-positioned over same site on the skull, and the occluding filament was withdrawn to allow for reperfusion. Mice were then allowed to recover and observed for 1 day. […] Slices were photographed, and infarcted (unstained) and uninfarcted (red color) areas were measured with MCID software (InterFocus Imaging Ltd, Linton, UK) and integrated across all five slices. To account for the effect of edema, the infarcted area was estimated indirectly by subtracting the uninfarcted area in the ipsilateral hemisphere from the contralateral hemisphere, and expressing infarct volume as a percentage of contralateral hemisphere. […] (2000) J. Physiol. Pharmacol., 51:655-72). […] Animals were randomly assigned to treatment groups.

[2] = tested on: neonatal murine cardiomyocytes; assay: Oxygen-glucose deprivation of cultured cardiomyocytes transduced with TAT-hsEH, cell death by propidium iodide; assay type: cell-based; conditions: for cell survival after OGD: all polymorphisms/groups tested except Arg287Gln
Procedure: Post natal Day 7-8 C57BL\6 mice were used. 3-4 hearts were obtained from same-gender mice. Cells were dissociated with 0.625% wt/volume trypsin in Ca^2+ and Mg^2+ free HBSS. The cells were centrifuged and re-suspended in FBS-M199. Cells were supplemented with estrogen-free 15% FBS, 100 U/ml penicillin, 100 μg/ml streptomycin, and 25 μM cytosine arabinoside. The cells were then plated at 37° C. for 1 hour under a water-saturated atmosphere of 5% CO2-[…]. Suspended cells were collected and plated at 1.0×10^5 cells/cm^2 and incubated as above for 24 hours.
Six TAT-hsEH fusion proteins, including one wild type and five EPHX2 mutants (Lys55Arg, Arg103Cys, Cys154Tyr, Arg287Gln, and Arg103Cys/Arg287Gln), were expressed and purified as reported (Koerner et al. (2007) J. Neurosci., 27:4642-4649).
TAT-hsEH fusion proteins were added to the medium of cultured cardiomyocytes to the final concentration of 100 nM. The cells were incubated at 37° C. for 24 hours before the onset of oxygen-glucose deprivation.
For oxygen-glucose deprivation (OGD), cells were placed in a Plexiglas hypoxia chamber under 100% N2 at 37° C. and glucose-free medium (MEM/HBSS). For reoxygenation, cells were placed in 21% O2 (5% CO2) and glucose-replete FBS-M199 medium.
Cell death was assessed via propidium iodide (PI, 5 μM) with >300 cells/sample.
Cultured neonatal murine cardiomyocytes were transduced with five human EPHX2 variants linked to the protein transduction domain TAT. Cultures were subjected to 1.5 hours of oxygen and glucose deprivation followed by 3 hours of re-oxygenation, with or without sEH substrate 14,15-EET. Cell death was assessed by propidium iodide (% of all cells, mean±SEM, n=5-9 replicates). Successful transduction was confirmed by immunoblot. All mutants reduced cell death compared to the human wild-type EPHX2 (rh-sEHWT, 63±1%), but only the Arg287Gln mutations was different from untransduced controls (FIG. 13B).

mice [3] = assay type: in vivo
Description: Male mice between the ages of 16-24 weeks were anesthetized with isoflurane (induction 4-5 vol %; maintenance 1-2 vol %), intubated with a 20G plastic IV catheter, and mechanically ventilated using a rodent ventilator (Inspira, volume-controlled, Harvard Apparatus, MA). ECG and rectal temperature were continuously monitored using a PC-based recording device (PowerLab 8/30, ADInstruments, Colorado Springs, Colo.). The animals were positioned in a right lateral decubital position on a heating pad and rectal temperature was maintained at 37° C. throughout the experiment. A PE-10 catheter was inserted into the left jugular vein for intravenous drug infusion. Using a dissecting microscope, a left-sided thoracotomy was performed in the 4th intercostal space. […] A ligature (8-0 Monosof MV-135-4, ⅜ 5 mm tapered needle, Syneture, Norwalk, Colo.) was placed around the left coronary artery (LCA) approximately 2 mm distal to the left atrial margin. The suture was fed through a short section of PE-10 tubing to form a snare to allow temporary occlusion. The LCA was occluded for 40 minutes; occlusion was confirmed by persistent ECG changes during occlusion and visual paling of the left ventricle (LV). After 40 minutes the snare was released and reperfusion was confirmed with visual hyperemia of the LV and return of the ECG changes. After 2 hours of reperfusion the LCA was re-occluded and fluorescent polymer microspheres (0.4% solution, diameter 1-10 μm; Duke Scientific Corporation, Palo Alto, Calif.) were infused via needle puncture of the LV apex. […] Heart was then excised, rinsed in normal saline, and the right and left atria were removed under the dissecting microscope. The remaining left and right ventricles were weighed and then sliced into seven sections (d=1 mm) for imaging and staining.
Heart sections were immediately photographed with a digital camera (Canon Powershot A620) under UV light for determination of AAR. Infarct size (I) was determined by staining the heart sections in 1% 2,3,5 triphenyltetrazolium chloride (TTC) in phosphate buffer at pH 7.4 for 10 minutes, followed by 10% neutral buffered formalin (NBF) bath overnight. Pictures were taken the next day under full spectrum light. TTC stained non-infarcted myocardium red, while infarcted myocardium remained white. Both AAR and I areas were calculated in a blinded fashion using standard imaging software (Photoshop Elements 4). A calibration ruler was present in each picture to convert pixels into volume. TTC slices were volume corrected for dehydration following formalin immersion.
The 14,15-EET was obtained from BIOMOL (Plymouth Meeting, Pa.). It was dissolved in a vehicle composed of 100% ethanol and saline (1:3), resulting in a final ethanol solution of 25%. […] SNC-162, a non-peptide δ-opioid receptor agonist, was used for comparison of the magnitude of cardioprotection found within the epoxide pathway. SNC-162 (0.1 μg/g iv over 10 minutes) was dissolved in 10% DMSO.

[4] = Pharmacokinetics of AUDA-BE and its metabolites in plasma after single intraperitoneal injection; assay type: in vivo, C57Bl/6 mice
Procedure: A second set of animals was injected with sesame oil alone (vehicle). […] (2002) Biochem. Pharmacol., 63:1599-608; Watanabe et al. (2006) Anal. Chim. Acta., 559:37-44). Briefly, blood samples (10 μL) were collected in 1.5 mL Eppendorf microcentrifuge tubes, weighed, and vortexed with 100 μL of purified water. […] Aliquots (10 μL) were analyzed by liquid chromatography coupled mass spectroscopy LC-MS/MS (Watanabe et al. (2006) Anal. Chim. Acta., 559:37-44; Watanabe and Hammock (2001) Anal. Biochem., 299:227-34). The concentration of sEH inhibitors were quantified in extracts using HPLC with positive mode electrospray ionization and tandem mass spectrometry. Analytes were quantified on a 5-point curve with internal standard methods. Surrogate recoveries were evaluated by quantification against the internal standard. Surrogate recoveries were 70% for all reported plasma samples, the analysis of reagent blanks, matrix spikes, and analytical replicates were used to document method stability during this study. […] Differences in infarct size, enzyme activity, and blood flow rates were analyzed with a t-test for two groups and analysis of variance with post hoc Newman-Keuls multiple range test for multiple groups. The pharmacokinetic profile was examined for goodness of fit to a noncompartmental or multicompartmental models. Pharmacokinetic parameters were then obtained by fitting the blood-concentration-time data to a non-compartmental model with the WinNonlin software (Pharsight, Mountain View, Calif., USA), as described previously (Watanabe et al. (2006) Anal. Chim. Acta., 559:37-44). The criterion for statistical significance was set at P<0.05. All values are reported as mean±s.e.m.

[5] = AUDA-BE and its metabolites measured in brain tissue; assay type: in vivo, mice; conditions: for levels detected in homogenates of brain tissue: after AUDA-BE injection, methanol/chloroform extraction
Description: This concentration was also biologically effective in lowering blood pressure in hypertensive model (Imig et al. (2005) Hypertension 46:975-81). Therefore, in these experiments, the levels of sEH inhibitors in the blood are in the concentration range expected to inhibit the enzyme.

[6] = given prior to LCA occlusion (PRE)
[7] = AUDA-BE 10 mg/kg intraperitoneal
[8] = single injection of 10 mg/kg AUDA-BE

CCCCCC1OC1CCCCCCC/C=C\CCCC(=O)O (stereo not shown) [14,15-EEZE, 14,15-epoxyeicosa-5(Z)-enoic acid]
infarct size after MCAO (mice [1]; sEHKO mice, 10 μg over 24 hours via minipump, mean±SD, vehicle-treated sEHKO 9.1±9.5): 9.4±12.4

C#CCOc1ccccc1CCCCCC(=O)NS(C)(=O)=O [MS-PPOH, N-methylsulfonyl-6-(2-propargyloxyphenyl)hexanamide]
infarct size after MCAO (C57Bl/6 mice): 24±6%

CCCCCC1OC1C/C=C\C/C=C\C/C=C\CCCC(=O)O (stereo not shown) [14,15-EET]
infarct size after MCAO (mice [1]; 14,15-EET 1 μg over 24 hours via osmotic minipump, jugular vein, vehicle 34.5±8.6%): 10.9±4.3%
cell survival after OGD [2]: improved cell survival
cell death (propidium iodide, % of all cells) ([2]; excess 14,15-EET (1 μM) in Arg287Gln-transduced cardiomyocytes, 1.5 hours OGD, 3 hours re-oxygenation): 45±1%
Infarct Volume (mice [3]; PRO (given prior to reperfusion)): 12 ± 2 mm^3
infarct size after myocardial I/R compared to vehicle (mice [3]; given before ischemia or before reperfusion): significantly reduced
Infarct Volume (mice [3]; [6]): 10 ± 1 mm^3
bleeding in pilot studies following heparin administration (mice [3]; mouse, in vivo): excessive bleeding
reducing I/AAR, injection prior to reperfusion compared to pre-ischemic delivery (mice [3]; mouse, in vivo): less effective

O=C(O)CCCCCCCCCCCNC(=O)NC12CC3CC(CC(C3)C1)C2 [AUDA, 12-(3-adamantan-1-yl-ureido)-dodecanoic acid]
peak concentration in plasma [4, 7]: 52 nmol/L
time of peak concentration in plasma [4, 7]: 1 h
half time of elimination in plasma ([4]; AUDA-BE 10 mg/kg intraperitoneal, non-compartmental model): 7 h
maximum concentration in plasma ([4]; AUDA-BE 40 mg/kg intraperitoneal, within the first hour): 4 µmol/L
MRT ([4]; C57Bl/6, mouse, plasma, ip, 10 mg/kg, read-out: mean residence time in plasma): 9 h
MRT ([5]; C57Bl/6, mouse, brain, intraperitoneal, 10 mg/kg, read-out: mean residence time in brain): 6 h
levels detected in homogenates of brain tissue [5]: significant levels
half-time elimination in brain [5, 8]: 4 h
time to maximum concentration in brain [5, 8]: ≤ 3 h

12-(3-adamantan-1-yl-ureido)-butyl acid [AUBA]
levels detected in homogenates of brain tissue [5]: not

O=C(c1ccccc1)C1OC1c1ccc(-c2ccccc2)cc1 (stereo not shown) [4-PCO, 4-phenylchalcone oxide]
cell survival after OGD [2]: improved cell survival significantly

C=CCN1C[C@H](C)N([C@@H](c2ccccc2)c2ccc(C(=O)N(CC)CC)cc2)C[C@H]1C [SNC-162]
Infarct Volume (mice [3]; [6]): 9 ± 2 mm^3
